Assay results: ChEMBL document CHEMBL4342491, “Development of a Versatile and Sensitive Direct Ligand Binding Assay for Human NR5A Nuclear Receptors” (ACS Med Chem Lett, 2020)

Legend:
[1] = molecular target: T1, Steroidogenic factor 1 (Homo sapiens, UniProt Q13285)
Description: Displacement of 6N-FAM from SF1 LBD (218 to 461 residues) (unknown origin) expressed in Escherichia coli BL21 pLysS by competitive binding based fluorescence polarization assay

[2] = molecular target: T1, Steroidogenic factor 1; experiment: Binding affinity to human SF1 LBD (218 to 461 residues) expressed in Escherichia coli BL21 by electrophoretic mobility shift assay
[3] = molecular target: T1, Steroidogenic factor 1; experiment: Binding affinity to SF1 LBD (218 to 461 residues) (unknown origin) expressed in Escherichia coli BL21 pLysS measured after overnight incubation by fluorescence polarization assay
[4] = molecular target: T1, Steroidogenic factor 1; experiment: Inhibition of Gal4-fused human SF1 LBD (198 to 462 residues) expressed in CHO-K1 cells; assay type: cell-based
[5] = molecular target: Nuclear receptor subfamily 5 group A member 2 (Homo sapiens) (UniProt O00482); experiment: Binding affinity to human LRH1 LBD expressed in Escherichia coli BL21 by electrophoretic mobility shift assay
Chain of Nuclear receptor subfamily 5 group A member 2 (Homo sapiens) (O00482 whole entry, the tested form may be a part): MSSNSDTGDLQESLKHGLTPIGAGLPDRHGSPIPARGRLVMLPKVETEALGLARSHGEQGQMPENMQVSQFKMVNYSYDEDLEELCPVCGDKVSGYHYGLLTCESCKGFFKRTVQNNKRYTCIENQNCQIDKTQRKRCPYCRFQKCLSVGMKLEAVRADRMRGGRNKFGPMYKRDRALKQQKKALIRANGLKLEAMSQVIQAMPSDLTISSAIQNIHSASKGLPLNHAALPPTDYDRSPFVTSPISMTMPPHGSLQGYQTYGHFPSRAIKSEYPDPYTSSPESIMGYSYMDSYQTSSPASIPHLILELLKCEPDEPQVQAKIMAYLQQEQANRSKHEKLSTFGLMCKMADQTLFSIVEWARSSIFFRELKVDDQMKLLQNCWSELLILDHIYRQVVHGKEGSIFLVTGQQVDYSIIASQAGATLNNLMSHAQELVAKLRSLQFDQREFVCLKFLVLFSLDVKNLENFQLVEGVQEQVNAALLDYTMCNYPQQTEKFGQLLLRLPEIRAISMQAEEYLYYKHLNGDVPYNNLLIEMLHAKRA

T1 sequence (Q13285 whole entry, the tested form may be a part): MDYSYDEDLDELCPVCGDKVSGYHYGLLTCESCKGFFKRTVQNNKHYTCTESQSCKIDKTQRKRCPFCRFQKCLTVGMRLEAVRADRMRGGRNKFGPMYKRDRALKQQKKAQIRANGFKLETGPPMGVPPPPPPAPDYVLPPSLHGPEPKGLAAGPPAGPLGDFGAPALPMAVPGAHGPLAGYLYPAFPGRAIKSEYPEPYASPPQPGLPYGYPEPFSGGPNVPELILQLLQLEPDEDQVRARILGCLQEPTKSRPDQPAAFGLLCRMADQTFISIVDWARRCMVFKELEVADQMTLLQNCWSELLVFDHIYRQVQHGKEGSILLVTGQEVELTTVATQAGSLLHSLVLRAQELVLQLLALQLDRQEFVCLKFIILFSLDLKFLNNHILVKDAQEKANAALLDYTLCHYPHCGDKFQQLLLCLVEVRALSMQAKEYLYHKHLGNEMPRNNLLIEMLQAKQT

Row | Ki [1] | SMILES | further results
1 | 7800 nM | C=C(c1ccccc1)[C@@]12CC[C@H](N)[C@@H]1CC(CCCCCCCCCC(=O)OC)=C2c1ccccc1 | –
2 | 418 nM | CCCCC/C=C\C/C=C\C/C=C\C/C=C\CCCC(=O)OC(COC(=O)CCCCCCCCCCCCCCCCC)COP(=O)(O)O[C@@H]1[C@H](O)[C@H](O)[C@@H](OP(=O)(O)O)[C@H](OP(=O)(O)O)[C@H]1O (some centres undefined) | Activity [2]: 250 nM
3 | – | C=C(c1ccccc1)[C@@]12CC[C@H](NS(N)(=O)=O)[C@@H]1CC(CCCCCCCCCC(=O)Nc1ccc3c(c1)C(=O)OC31c3ccc(O)cc3Oc3cc(O)ccc31)=C2c1ccccc1 | Kd [3]: 12.3 nM
4 | 1400 nM | C=C(c1ccccc1)[C@@]12CC[C@H](NS(N)(=O)=O)C1CC(CCCCCC)=C2c1ccccc1 (some centres undefined) | –
5 | – | CCOC(=O)C(C)Oc1cccc2c(=O)n(CC(=O)Nc3ccc4c(c3)OCCO4)ccc12 (centres undefined) | IC50 [4]: 30 nM
6 | 34700 nM | CCCCNC(=O)c1cc(C(C)(C)C)cc(C(C)(C)C)c1O | –
7 | – | CCCC(=O)OC[C@H](COP(=O)(O)O[C@H]1[C@H](O)[C@@H](OP(=O)(O)O)[C@H](OP(=O)(O)O)[C@@H](OP(=O)(O)O)[C@H]1O)OC(=O)CCC | Activity [5]: 120 nM

Row | SMILES | Ki [1] | further results
8 | CCCCCCCCCCCC(=O)OC[C@H](COP(=O)([O-])OCC[N+](C)(C)C)OC(=O)CCCCCCCCCCC | 850 nM | –
